This note sets out measurements from patent US4435392A, “2,5-Benzodiazocine derivatives and salts thereof, as well as pharmaceutical agent comprising as effective component at least one of the derivatives and salts” (Sanwa Kagaku Kenkyusho Co. Ltd., priority 1982, dated 1984).

The ED50 is the midpoint of the dose-response relation. Read a low ED50 as greater potency. The term LD50 denotes the dose at which mortality reaches 50%. A high value points to a less toxic substance.

Data set [1] deals with dd-type male mice. As to the kind of experiment: Effect on Sleep (pentobarbital sleeping time). It is filed as in vivo. The note with it: pentobarbital 40 mg/kg. As to the method:
The dd-type male mice of 16 to 24 g were classified into groups, each having 10 mice. To each mouse, a testing agent was dosed through abdominal cavity and after having lapsed 30 minutes from the dosage, 40 mg/kg of pentobarbital was also dosed through abdominal cavity to measure a time of sleeping period. The sleeping time in question designates a time period, wherein a facing reflex disappears. Judgements were given based on following 7 measures.

Data set [2] has as its system dd-male mice. As to the kind of experiment: Analgetic action, Acetic Acid Stretching Method. The data set is classed as in vivo. The settings on record: Mus musculus, po, orally given 30 minutes before acetic acid, hydrochloride. The protocol: (ii) Acetic Acid Stretching Method
The dd-male mice of 17 to 23 g were classified into groups, each having 10 mice, and 0.7% aqueous solution of acetic acid was dosed into abdominal cavity for each mouse in a ratio of 10 ml/kg and then a stretching condition was observed over 5 minutes of having lapsed 10 to 15 minutes from the dosage. The test was repeated 4 times to obtain total measured value and an inhibition ratio was measured from number of stretching actions. A judgement has been given in "Yes" or "No" system.
According to the Richfield and Wilcoxson Methods, ED50, LD50 and 95% confidence limit were calculated and compared the same for each testing agents and Control.
Each testing agent and control was orally given 30 minutes before the dosage of the acetic acid in a ratio of 100 mg/10 ml/kg.

Another data set in a line: Acute Toxity, mouse. The settings on record: in vivo. As to the method: (§1) The dd-type 5 weeks male mice of 21 to 26 g and Wister type 5 weeks male rats of 110 to 150 g were classified into groups, each having 10 mice or rats. After having given testing agents to the mice and rats, general conditions, number of deaths in each day and body weight changes have been observed over 7 days. An LD50 value was calculated based on total number of deaths during the 7 days testing time period, in accordance with the Richfield-Wilcoxson Method. The surviving animals were dissected to visually observe internal organs thereof.

Another data set can be described thus: Acute Toxity, rat. The settings on record: in vivo. The protocol:
as §1

Data set [3] concerns dd-male mice. The data set is described as follows: Analgetic action, Haffner's Method (tail root clamping). It is filed as in vivo. The note with it: Mus musculus, ip, abdominal cavity, hydrochloride. The protocol:
In accordance with a usual manner, dd-male mice of 14 to 22 g were classified into groups, each having 10 mice, compounds to be tested in various concentrations were given to each mouse and then clamped a tail root of the mouse with use of Koffer clamps in each time period of having lapsed 15, 30, 45 and 60 minutes from the dosage to measure an analgetic action of the compounds by judging as "negative" when the tested mouse cries or looks back.
Further the number of deaths was counted in each 10 mice group after having lapsed 2 hours from dosage of each testing agent into abdominal cavity and then ED50, LD50 and 95% confidence limit were calculated based on the Richfield and Wilcoxson Methods to compare the results obtained on the agents.

In a further data set the test system is Wister type male rats. As to the kind of experiment: Antipyretic Action (rectal body temperature). The data set is classed as in vivo. As to the method: Wister type male rats of 100 to 140 g were classified into groups, each having 4 to 5 rats. The rats were abstrained from food for 1 day and then each rat was entered in each cage. The body temperature was measured under a constant room temperature through the rectum. This body temperature measurement was carried out in 3 times before a dosage of agents as well as after lapsed 30, 60, 90, 120 and 150 minutes from the dosage.
Judgements have been given based on following 5 measures.

Data set [4] has as its system dd-type male mice. As to the kind of experiment: Effect on Sleep (pentobarbital sleeping time). The note with it: pentobarbital 40 mg/kg. The data set is classed as in vivo. The source holds these as a separate data set.
Setting [5] is: intravenous injectional dosage, 7 days.
[6] abbreviates: ip, in abdominal cavity, 7 days.
[7] abbreviates: in abdominal cavity 50 mg/Kg, hydrochloride.
Where [8] appears, read: in abdominal cavity 25 mg/Kg (control).

Take `COc1ccc(C2c3ccccc3CN(CCCC(=O)c3ccc(F)cc3)CCN2C)cc1` (stereo not drawn) [Compound I-a, 5-[3-(p-fluorobenzoyl)propyl]-1,2,3,4,5,6-hexahydro-1-(p-methoxyphenyl)-2-methyl-2,5-benzodiazocine]: the “Sleep Incrementing Action” value in the data set on dd-type male mice [1] (in abdominal cavity 50 mg/Kg) was “++ (sleeping time was extended by 30 to 60 minutes in comparison with control)”; with dd-type male mice [4] (oral dosage 100 mg/Kg), “+++ (sleeping time was extended by 60 minutes or more in comparison with control)”. In addition, the values for the 50% effective dose (ED50) in the data set on dd-male mice [2] and with dd-male mice [3] were 40.5 mg/kg and 18.4 mg/kg, respectively. The 50% lethal dose (LD50) at 168 h in the data set “Acute Toxity, mouse” (setting [5]) is 30.1 mg/kg; in the data set “Acute Toxity, mouse” (setting [6]), 179 mg/kg; in “Acute Toxity, mouse” (oral dosage, 7 days), 1500 mg/kg; in “Acute Toxity, rat” (setting [5]) it was 20 mg/kg; in “Acute Toxity, rat” (oral dosage, 7 days) it was 3500 mg/kg. In addition, the “Antipyretic Action” value with Wister type male rats (setting [7]) is “++ (showing decrease of 1° to 2 °C and obtaining at least one result of a notifiable difference of P<1%)”.

Regarding `COc1ccc(CCN2CCN(C)C(c3ccc(OC)cc3)c3ccccc3C2)cc1` (stereo not drawn) [Compound I-b, 5-(p-methoxyphenethyl)-1,2,3,4,5,6-hexahydro-1-(p-methoxyphenyl)-2-methyl-2,5-benzodiazocine], the “Sleep Incrementing Action” value in the data set on dd-type male mice [1] (in abdominal cavity 50 mg/Kg) and with dd-type male mice [4] (oral dosage 100 mg/Kg) was “+++ (sleeping time was extended by 60 minutes or more in comparison with control)” each time. In addition, the ED50 in the data set on dd-male mice [2] came to 48.5 mg/kg; in the data set with dd-male mice [3], 26.2 mg/kg. Also, the LD50 at 168 h was 33 mg/kg in the data set “Acute Toxity, mouse” (setting [5]); 124 mg/kg in the data set “Acute Toxity, mouse” (setting [6]); 623 mg/kg in “Acute Toxity, mouse” (oral dosage, 7 days); 20.7 mg/kg in the data set “Acute Toxity, rat” (setting [5]); 4090 mg/kg in “Acute Toxity, rat” (oral dosage, 7 days). For the same compound, the “Antipyretic Action” value in the data set with Wister type male rats (setting [7]) was “++ (showing decrease of 1° to 2 °C and obtaining at least one result of a notifiable difference of P<1%)”.

`CN1CCN(CCCC(=O)c2ccc(F)cc2)Cc2ccccc2C1c1ccccc1` (stereo not drawn) [Compound I-c, 5-[3-(p-fluorobenzoyl)propyl]-1,2,3,4,5,6-hexahydro-1-phenyl-2-methyl-2,5-benzodiazocine]: the “Sleep Incrementing Action” value in the data set on dd-type male mice [1] (in abdominal cavity 50 mg/Kg) and in the data set on dd-type male mice [4] (oral dosage 100 mg/Kg) was “+++ (sleeping time was extended by 60 minutes or more in comparison with control)” each time. Also, the ED50 was 5.7 mg/kg in the data set with dd-male mice [2] and 44.2 mg/kg with dd-male mice [3]. Moreover, the median lethal dose (LD50) at 168 h in “Acute Toxity, mouse” (setting [5]) is 29 mg/kg; in “Acute Toxity, mouse” (setting [6]) it was 208 mg/kg; in “Acute Toxity, mouse” (oral dosage, 7 days), 1700 mg/kg; in the data set “Acute Toxity, rat” (setting [5]) it was 23.8 mg/kg; in the data set “Acute Toxity, rat” (oral dosage, 7 days) it was greater than 4000 mg/kg. Further, the “Antipyretic Action” value in the data set on Wister type male rats (setting [7]) was “++ (showing decrease of 1° to 2 °C and obtaining at least one result of a notifiable difference of P<1%)”.

`c1ccc(C2NCCN(CC3CC3)Cc3ccccc32)cc1` (stereo not drawn) [Compound I-d, 5-cyclopropylmethyl-1,2,3,4,5,6-hexahydro-1-phenyl-2,5-benzodiazocine]: the “Sleep Incrementing Action” value with dd-type male mice [1] (in abdominal cavity 50 mg/Kg) and in the data set on dd-type male mice [4] (oral dosage 100 mg/Kg) was “-- (sleeping time was shortened by 30 to 60 minutes in comparison with control)” throughout. Moreover, the median effective dose (ED50) with dd-male mice [2] worked out at 13.5 mg/kg; with dd-male mice [3] it was 17.1 mg/kg. In addition, the median lethal dose (LD50) at 168 h came to 18 mg/kg in “Acute Toxity, mouse” (setting [5]); 51.6 mg/kg in the data set “Acute Toxity, mouse” (setting [6]); 215 mg/kg in the data set “Acute Toxity, mouse” (oral dosage, 7 days); 17.8 mg/kg in “Acute Toxity, rat” (setting [5]); 485 mg/kg in “Acute Toxity, rat” (oral dosage, 7 days). For the same compound, the “Antipyretic Action” value in the data set on Wister type male rats (setting [7]) is “++ (showing decrease of 1° to 2 °C and obtaining at least one result of a notifiable difference of P<1%)”.

Turning to `CCOC(=O)/C=C/C(=O)Nc1ccc(CCN2CCNC(c3ccccc3)c3ccccc3C2)cc1` (stereo not drawn) [Compound I-e, [5(E)]-ethyl-4-[[4-[2-(1,2,3,4,5,6-hexahydro-1-phenyl-2,5-benzodiazocine)-5-yl]ethyl]phenyl]amino-4-oxo-2-butenoate], the “Sleep Incrementing Action” value is recorded as “-- (sleeping time was shortened by 30 to 60 minutes in comparison with control)” in the data set on dd-type male mice [1] (in abdominal cavity 50 mg/Kg) and “++ (sleeping time was extended by 30 to 60 minutes in comparison with control)” in the data set on dd-type male mice [4] (oral dosage 100 mg/Kg). Further, the ED50 in the data set on dd-male mice [2] turned out to be 61.1 mg/kg; with dd-male mice [3] it was 80.3 mg/kg. The median lethal dose (LD50) at 168 h in the data set “Acute Toxity, mouse” (ip) was greater than 200 mg/kg; in “Acute Toxity, mouse” (po), 938 mg/kg; in the data set “Acute Toxity, rat” (po), greater than 5000 mg/kg. In addition, in the data set with Wister type male rats (setting [7]), the “Antipyretic Action” value is “++ (showing decrease of 1° to 2 °C and obtaining at least one result of a notifiable difference of P<1%)”.

As for `COc1ccc(C2NCCN(CCCC(=O)c3ccc(F)cc3)Cc3ccccc32)cc1` (stereo not drawn) [Compound I-f, 5-[3-(p-fluorobenzoyl)propyl]-1,2,3,4,5,6-hexahydro-1-(p-methoxyphenyl)-2,5-benzodiazocine], the “Sleep Incrementing Action” value with dd-type male mice [1] (in abdominal cavity 50 mg/Kg) and in the data set with dd-type male mice [4] (oral dosage 100 mg/Kg) was “+++ (sleeping time was extended by 60 minutes or more in comparison with control)” in each case. Besides, the 50% effective dose (ED50) stood at 11.5 mg/kg in the data set with dd-male mice [2] and 30.7 mg/kg in the data set on dd-male mice [3]. The LD50 at 168 h was 35.9 mg/kg in “Acute Toxity, mouse” (setting [5]); 109 mg/kg in “Acute Toxity, mouse” (setting [6]); 340 mg/kg in the data set “Acute Toxity, mouse” (oral dosage, 7 days); 19.8 mg/kg in “Acute Toxity, rat” (setting [5]); 2890 mg/kg in “Acute Toxity, rat” (oral dosage, 7 days). Further, in the data set with Wister type male rats (setting [7]), the “Antipyretic Action” value is “++ (showing decrease of 1° to 2 °C and obtaining at least one result of a notifiable difference of P<1%)”.

As for `CN1CCOC(c2ccccc2)c2ccccc2C1` (stereo not drawn) [Nefopam, reference compound], the “Sleep Incrementing Action” value in the data set with dd-type male mice [1] (setting [8]) and in the data set on dd-type male mice [4] (oral dosage 50 mg/Kg (control)) was “-- (sleeping time was shortened by 30 to 60 minutes in comparison with control)” in each case. Moreover, the 50% lethal dose (LD50) at 168 h was found to be 36.8 mg/kg in “Acute Toxity, mouse” (setting [5]); 72.4 mg/kg in the data set “Acute Toxity, mouse” (setting [6]); 356 mg/kg in “Acute Toxity, mouse” (oral dosage, 7 days); 18 mg/kg in “Acute Toxity, rat” (setting [5]); 595 mg/kg in the data set “Acute Toxity, rat” (oral dosage, 7 days). Moreover, the “Antipyretic Action” value in the data set on Wister type male rats (setting [8]) was “++ (showing decrease of 1° to 2 °C and obtaining at least one result of a notifiable difference of P<1%)”.
